Test results from PubChem BioAssay (NCI).
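Growth conditions: 96-well plates. Treatment: test compound, 48 hours, 5 concentrations. Analysis: linear interpolation between bracketing concentrations; unreached endpoints set to highest concentration. TGI is the concentration that stops growth completely.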

test system: K-562 leukemia; test: inhibition of tumour cell growth, NCI panel, 48 h

Structure (SMILES)	TGI [µM]
CC(C)(Cl)C(Br)CCC(=CCCl)CBr (mixture of isomers)	> 20.1
CC(=O)OCC1OC(n2c3c(cc(C#N)c2=S)CCCCC3)C(OC(C)=O)C(OC(C)=O)C1OC(C)=O (stereo not drawn)	> 100
[N-]=[N+]=NC1=C(c2ccccn2)C(=O)c2cccc3cccc1c23	> 100
O=C(O)c1ccc(OCc2nc3cc(C(F)(F)F)ccc3nc2-c2ccccc2)cc1	> 100
CC1=C(CO)C(=O)O[C@@H]([C@@H](CO)[C@H]2CCC3C4C[C@@H](O)[C@@]5(O)CC=CC(=O)[C@]5(C)C4CC[C@@]32C)C1 (stereo partly drawn)	> 100
CSc1cnc2ccccc2c1SC1CN(Cc2ccccc2)c2ccccc2C1=O (stereo not drawn)	> 100
C=C1CN2CC(=C)CN(C1)CS(=O)(=O)N1CC(=C)CN(CC(=C)C1)S(=O)(=O)N1CC(=C)CN(CC(=C)C1)S(=O)(=O)C2	> 100
O=C(O)/C=c1/c2ccccc2n2nc3ccccc3c12	> 100
C=CC[C@]12C=C(OC)[C@@H](O)[C@](OC)(C(c3cc(OC)c4c(c3)OCO4)[C@H]1C)[C@H]2OC(C)=O (stereo partly drawn)	> 100
C=C(Cl)C(C)(Cl)CCC(Br)C(C)(C)Cl (stereo not drawn)	> 100
O=C1c2ccccc2C2(c3ccc(Cl)cc3)N[C@H]3CCCC[C@@H]3N12 (stereo partly drawn)	> 100
COc1ccc2c(cnc3c4cc(OC)c(OC)cc4ccc23)c1	> 100
Cn1c(COC(=O)Nc2ccccc2)c(COC(=O)Nc2ccccc2)c2ccc3cc(Cl)c(Cl)cc3c21	> 75
CCNC(=O)Nc1cccc(NC(=O)NCC)n1	> 100
C=CCOc1ccc(C2C(C(=O)OCC)C(=O)CC(C)(O)C2C(=O)OCC)cc1OC (stereo not drawn)	> 100
CC(C)=CCNc1ncnc2c1ncn2CCC#N	> 100

test system: UACC-62 melanoma; test: inhibition of tumour cell growth, NCI panel, 48 h

Structure (SMILES)	TGI [µM]
C=C1C(=O)C=C[C@]2(C)CC[C@H]3C(=C)C(=O)O[C@@H]3[C@@H]12	4.29
O=C1/C(=C/c2ccc(Cl)cc2)CSc2ccccc21	14.6
CC(C)(Cl)C(Br)CCC(=CCCl)CBr (mixture of isomers)	5.41
CC(=O)OCC1OC(n2c3c(cc(C#N)c2=S)CCCCC3)C(OC(C)=O)C(OC(C)=O)C1OC(C)=O (stereo not drawn)	> 100
NC(CCC(=O)NC(CSCC1C(=O)Nc2ccccc21)C(=O)NCC(=O)O)C(=O)O (stereo not drawn)	23.6
[N-]=[N+]=NC1=C(c2ccccn2)C(=O)c2cccc3cccc1c23	> 100
O=C(O)c1ccc(OCc2nc3cc(C(F)(F)F)ccc3nc2-c2ccccc2)cc1	> 100
CC1=C(CO)C(=O)O[C@@H]([C@@H](CO)[C@H]2CCC3C4C[C@@H](O)[C@@]5(O)CC=CC(=O)[C@]5(C)C4CC[C@@]32C)C1 (stereo partly drawn)	> 100
CSc1cnc2ccccc2c1SC1CN(Cc2ccccc2)c2ccccc2C1=O (stereo not drawn)	> 100
C=C1CN2CC(=C)CN(C1)CS(=O)(=O)N1CC(=C)CN(CC(=C)C1)S(=O)(=O)N1CC(=C)CN(CC(=C)C1)S(=O)(=O)C2	> 100
O=C(O)/C=c1/c2ccccc2n2nc3ccccc3c12	43.5
C=CC[C@]12C=C(OC)[C@@H](O)[C@](OC)(C(c3cc(OC)c4c(c3)OCO4)[C@H]1C)[C@H]2OC(C)=O (stereo partly drawn)	> 100
C=C(Cl)C(C)(Cl)CCC(Br)C(C)(C)Cl (stereo not drawn)	30.9
O=C1c2ccccc2C2(c3ccc(Cl)cc3)N[C@H]3CCCC[C@@H]3N12 (stereo partly drawn)	> 100
COc1ccc2c(cnc3c4cc(OC)c(OC)cc4ccc23)c1	> 100
Cn1c(COC(=O)Nc2ccccc2)c(COC(=O)Nc2ccccc2)c2ccc3cc(Cl)c(Cl)cc3c21	40.7
CCNC(=O)Nc1cccc(NC(=O)NCC)n1	> 100
C=CCOc1ccc(C2C(C(=O)OCC)C(=O)CC(C)(O)C2C(=O)OCC)cc1OC (stereo not drawn)	> 100
CC(C)=CCNc1ncnc2c1ncn2CCC#N	> 100

test system: UACC-257 melanoma; test: inhibition of tumour cell growth, NCI panel, 48 h

Structure (SMILES)	TGI [µM]
C=C1C(=O)C=C[C@]2(C)CC[C@H]3C(=C)C(=O)O[C@@H]3[C@@H]12	10.5
O=C1/C(=C/c2ccc(Cl)cc2)CSc2ccccc21	37.4
CSc1ncnc2c1ncn2CCC#N	> 100
CC(C)(Cl)C(Br)CCC(=CCCl)CBr (mixture of isomers)	6.81
CC(=O)OCC1OC(n2c3c(cc(C#N)c2=S)CCCCC3)C(OC(C)=O)C(OC(C)=O)C1OC(C)=O (stereo not drawn)	> 100
NC(CCC(=O)NC(CSCC1C(=O)Nc2ccccc21)C(=O)NCC(=O)O)C(=O)O (stereo not drawn)	19.5
[N-]=[N+]=NC1=C(c2ccccn2)C(=O)c2cccc3cccc1c23	98.4
O=C(O)c1ccc(OCc2nc3cc(C(F)(F)F)ccc3nc2-c2ccccc2)cc1	> 100
CC1=C(CO)C(=O)O[C@@H]([C@@H](CO)[C@H]2CCC3C4C[C@@H](O)[C@@]5(O)CC=CC(=O)[C@]5(C)C4CC[C@@]32C)C1 (stereo partly drawn)	> 100
CSc1cnc2ccccc2c1SC1CN(Cc2ccccc2)c2ccccc2C1=O (stereo not drawn)	> 100
C=C1CN2CC(=C)CN(C1)CS(=O)(=O)N1CC(=C)CN(CC(=C)C1)S(=O)(=O)N1CC(=C)CN(CC(=C)C1)S(=O)(=O)C2	94.4
O=C(O)/C=c1/c2ccccc2n2nc3ccccc3c12	70
C=CC[C@]12C=C(OC)[C@@H](O)[C@](OC)(C(c3cc(OC)c4c(c3)OCO4)[C@H]1C)[C@H]2OC(C)=O (stereo partly drawn)	> 100
C=C(Cl)C(C)(Cl)CCC(Br)C(C)(C)Cl (stereo not drawn)	30.5
O=C1c2ccccc2C2(c3ccc(Cl)cc3)N[C@H]3CCCC[C@@H]3N12 (stereo partly drawn)	> 100
COc1ccc2c(cnc3c4cc(OC)c(OC)cc4ccc23)c1	> 100
Cn1c(COC(=O)Nc2ccccc2)c(COC(=O)Nc2ccccc2)c2ccc3cc(Cl)c(Cl)cc3c21	21.6
CCNC(=O)Nc1cccc(NC(=O)NCC)n1	> 100
C=CCOc1ccc(C2C(C(=O)OCC)C(=O)CC(C)(O)C2C(=O)OCC)cc1OC (stereo not drawn)	> 100

test system: OVCAR-5 ovarian; test: inhibition of tumour cell growth, NCI panel, 48 h

Structure (SMILES)	TGI [µM]
C=C1C(=O)C=C[C@]2(C)CC[C@H]3C(=C)C(=O)O[C@@H]3[C@@H]12	3
CSc1ncnc2c1ncn2CCC#N	> 100
CC(C)(Cl)C(Br)CCC(=CCCl)CBr (mixture of isomers)	21.4
CC(=O)OCC1OC(n2c3c(cc(C#N)c2=S)CCCCC3)C(OC(C)=O)C(OC(C)=O)C1OC(C)=O (stereo not drawn)	> 100
NC(CCC(=O)NC(CSCC1C(=O)Nc2ccccc21)C(=O)NCC(=O)O)C(=O)O (stereo not drawn)	31.1
[N-]=[N+]=NC1=C(c2ccccn2)C(=O)c2cccc3cccc1c23	> 100
O=C(O)c1ccc(OCc2nc3cc(C(F)(F)F)ccc3nc2-c2ccccc2)cc1	> 100
CC1=C(CO)C(=O)O[C@@H]([C@@H](CO)[C@H]2CCC3C4C[C@@H](O)[C@@]5(O)CC=CC(=O)[C@]5(C)C4CC[C@@]32C)C1 (stereo partly drawn)	> 100
CSc1cnc2ccccc2c1SC1CN(Cc2ccccc2)c2ccccc2C1=O (stereo not drawn)	> 100
C=C1CN2CC(=C)CN(C1)CS(=O)(=O)N1CC(=C)CN(CC(=C)C1)S(=O)(=O)N1CC(=C)CN(CC(=C)C1)S(=O)(=O)C2	> 100
O=C(O)/C=c1/c2ccccc2n2nc3ccccc3c12	> 100
C=CC[C@]12C=C(OC)[C@@H](O)[C@](OC)(C(c3cc(OC)c4c(c3)OCO4)[C@H]1C)[C@H]2OC(C)=O (stereo partly drawn)	> 100
C=C(Cl)C(C)(Cl)CCC(Br)C(C)(C)Cl (stereo not drawn)	47.7
COc1ccc2c(cnc3c4cc(OC)c(OC)cc4ccc23)c1	> 100
Cn1c(COC(=O)Nc2ccccc2)c(COC(=O)Nc2ccccc2)c2ccc3cc(Cl)c(Cl)cc3c21	24.1
CCNC(=O)Nc1cccc(NC(=O)NCC)n1	> 100
C=CCOc1ccc(C2C(C(=O)OCC)C(=O)CC(C)(O)C2C(=O)OCC)cc1OC (stereo not drawn)	> 100
CC(C)=CCNc1ncnc2c1ncn2CCC#N	> 100

test system: SK-MEL-2 melanoma; test: inhibition of tumour cell growth, NCI panel, 48 h

Structure (SMILES)	TGI [µM]
C=C1C(=O)C=C[C@]2(C)CC[C@H]3C(=C)C(=O)O[C@@H]3[C@@H]12	6.99
O=C1/C(=C/c2ccc(Cl)cc2)CSc2ccccc21	41.8
CC(C)(Cl)C(Br)CCC(=CCCl)CBr (mixture of isomers)	9.93
CC(=O)OCC1OC(n2c3c(cc(C#N)c2=S)CCCCC3)C(OC(C)=O)C(OC(C)=O)C1OC(C)=O (stereo not drawn)	> 100
NC(CCC(=O)NC(CSCC1C(=O)Nc2ccccc21)C(=O)NCC(=O)O)C(=O)O (stereo not drawn)	25.4
[N-]=[N+]=NC1=C(c2ccccn2)C(=O)c2cccc3cccc1c23	> 100
O=C(O)c1ccc(OCc2nc3cc(C(F)(F)F)ccc3nc2-c2ccccc2)cc1	> 100
CC1=C(CO)C(=O)O[C@@H]([C@@H](CO)[C@H]2CCC3C4C[C@@H](O)[C@@]5(O)CC=CC(=O)[C@]5(C)C4CC[C@@]32C)C1 (stereo partly drawn)	> 100
CSc1cnc2ccccc2c1SC1CN(Cc2ccccc2)c2ccccc2C1=O (stereo not drawn)	> 100
C=C1CN2CC(=C)CN(C1)CS(=O)(=O)N1CC(=C)CN(CC(=C)C1)S(=O)(=O)N1CC(=C)CN(CC(=C)C1)S(=O)(=O)C2	> 100
O=C(O)/C=c1/c2ccccc2n2nc3ccccc3c12	> 100
C=CC[C@]12C=C(OC)[C@@H](O)[C@](OC)(C(c3cc(OC)c4c(c3)OCO4)[C@H]1C)[C@H]2OC(C)=O (stereo partly drawn)	> 100
C=C(Cl)C(C)(Cl)CCC(Br)C(C)(C)Cl (stereo not drawn)	37.6
COc1ccc2c(cnc3c4cc(OC)c(OC)cc4ccc23)c1	> 100
Cn1c(COC(=O)Nc2ccccc2)c(COC(=O)Nc2ccccc2)c2ccc3cc(Cl)c(Cl)cc3c21	17.9
C=CCOc1ccc(C2C(C(=O)OCC)C(=O)CC(C)(O)C2C(=O)OCC)cc1OC (stereo not drawn)	> 100
